Results reported in patent US20240215573A1, “LIQUID AGROCHEMICAL COMPOSITION” (NOURYON CHEMICALS INTERNATIONAL B.V., priority 2020, published 2024).

Tests used:
Format in all cases: in vivo
Alfalfa [1] = assay: Greenhouse Test 1: weed control by 2,4-D with surfactants
Source text: In a first series of Examples, the following compounds are utilized to evaluate the efficacy of various herbicides in combination with various surfactants against two types of weeds: • Herbicides: […]; dicamba; and glufosinate • Surfactants: Glycerol Monosoyate+10EO; • Glycerol Monosoyate+15EO; • Glycerol Monosoyate+20EO; • Glycerol Monosoyate+30EO; • Glycerol Monosoyate+50EO; • Soybean oil+20EO; • Reference 1—Polyoxyethylene (20) sorbitan monolaurate • Reference 2—Sodium lauryl ether sulfate The following test protocol is used:
(§1) Data is collected at end of each week for 4 weeks.

Alfalfa [2] = assay: Greenhouse Test 1: weed control by dicamba with surfactants
Source text: (§2) In a first series of Examples, the following compounds are utilized to evaluate the efficacy of various herbicides in combination with various surfactants against two types of weeds: • Herbicides: 2,4-D ester; dicamba; and glufosinate • Surfactants: Glycerol Monosoyate+10EO; • Glycerol Monosoyate+15EO; • Glycerol Monosoyate+20EO; • Glycerol Monosoyate+30EO; • Glycerol Monosoyate+50EO; • Soybean oil+20EO; • Reference 1—Polyoxyethylene (20) sorbitan monolaurate • Reference 2—Sodium lauryl ether sulfate The following test protocol is used:
as §1

Morning glory = assay: Greenhouse Test 1: weed control by glufosinate with surfactants
Source text: as §2, §1

[3] = Table 1A: 2,4-D DMA 91 g ae/A, surfactant 0.1%
[4] = Table 1B: 2,4-D DMA 91 g ae/A, surfactant 0.25%
[5] = Table 1C: 2,4-D DMA 91 g ae/A, surfactant 0.25% (so in the source)
[6] = Table 1D: 2,4-D DMA 91 g ae/A (so in the source), surfactant 0.25%
[7] = Table 2A: Dicamba 23 g ae/A, surfactant 0.1%
[8] = Table 2B: Dicamba 23 g ae/A, surfactant 0.25%
[9] = Table 2C: Dicamba 45 g ae/A, surfactant 0.1%
[10] = Table 2D: Dicamba 45 g ae/A, surfactant 0.25%
[11] = Table 3A: Glufosinate 3 oz/a, surfactant 0.25%
[12] = Table 3B: Glufosinate 3 oz/a, surfactant 0.5%
[13] = Table 3C: Glufosinate 6 oz/a, surfactant 0.25%
[14] = Table 3D: Glufosinate 6 oz/a, surfactant 0.50%

CNC.O=C(O)COc1ccc(Cl)cc1Cl [2,4-D DMA]
% weed control, 7 day (Alfalfa [1]; [3]): 0.0%
% weed control, 14 day (Alfalfa [1]; [3]): 0.0%
% weed control, 21 day (Alfalfa [1]; [3]): 27.5%
% weed control, 28 day (Alfalfa [1]; [3]): 32.5%
% weed control, 7 day (Alfalfa [1]; [4]): 0.0%
% weed control, 14 day (Alfalfa [1]; [4]): 0.0%
% weed control, 21 day (Alfalfa [1]; [4]): 27.5%
% weed control, 28 day (Alfalfa [1]; [4]): 32.5%
% weed control, 7 day (Alfalfa [1]; [5]): 0.0%
% weed control, 14 day (Alfalfa [1]; [5]): 7.5%
% weed control, 21 day (Alfalfa [1]; [5]): 57.5%
% weed control, 28 day (Alfalfa [1]; [5]): 57.5%
% weed control, 7 day (Alfalfa [1]; [6]): 0.0%
% weed control, 14 day (Alfalfa [1]; [6]): 7.5%
% weed control, 21 day (Alfalfa [1]; [6]): 57.5%
% weed control, 28 day (Alfalfa [1]; [6]): 57.5%

COc1c(Cl)ccc(Cl)c1C(=O)O [Dicamba]
% weed control, 7 day (Alfalfa [2]; [7]): 0.0%
% weed control, 14 day (Alfalfa [2]; [7]): 20.0%
% weed control, 21 day (Alfalfa [2]; [7]): 20.0%
% weed control, 28 day (Alfalfa [2]; [7]): 12.5%
% weed control, 7 day (Alfalfa [2]; [8]): 0.0%
% weed control, 14 day (Alfalfa [2]; [8]): 20.0%
% weed control, 21 day (Alfalfa [2]; [8]): 20.0%
% weed control, 28 day (Alfalfa [2]; [8]): 12.5%
% weed control, 7 day (Alfalfa [2]; [9]): 0.0%
% weed control, 14 day (Alfalfa [2]; [9]): 50.0%
% weed control, 21 day (Alfalfa [2]; [9]): 75.0%
% weed control, 28 day (Alfalfa [2]; [9]): 55.0%
% weed control, 7 day (Alfalfa [2]; [10]): 0.0%
% weed control, 14 day (Alfalfa [2]; [10]): 50.0%
% weed control, 21 day (Alfalfa [2]; [10]): 75.0%
% weed control, 28 day (Alfalfa [2]; [10]): 55.0%

CP(=O)(O)CCC(N)C(=O)O (stereo not drawn) [Glufosinate]
% weed control, 7 day (Morning glory; [11]): 0.0%
% weed control, 14 day (Morning glory; [11]): 40.0%
% weed control, 21 day (Morning glory; [11]): 25.0%
% weed control, 28 day (Morning glory; [11]): 12.5%
% weed control, 7 day (Morning glory; [12]): 0.0%
% weed control, 14 day (Morning glory; [12]): 40.0%
% weed control, 21 day (Morning glory; [12]): 25.0%
% weed control, 28 day (Morning glory; [12]): 12.5%
% weed control, 7 day (Morning glory; [13]): 0.0%
% weed control, 14 day (Morning glory; [13]): 55.0%
% weed control, 21 day (Morning glory; [13]): 40.0%
% weed control, 28 day (Morning glory; [13]): 27.5%
% weed control, 7 day (Morning glory; [14]): 0.0%
% weed control, 14 day (Morning glory; [14]): 55.0%
% weed control, 21 day (Morning glory; [14]): 40.0%
% weed control, 28 day (Morning glory; [14]): 27.5%
